Measurements as given in patent publication US20070037253A1, “Methods and compositions for treatment of arthritis and cancer” (priority 2003, published 2007).
Entries after “also recorded” stand apart in the source; their conditions may differ. Where a SMILES comes first, the peptide text is derived from it.

How the values were obtained:
MMP-9 = target: T1, MMP-9 (Homo sapiens, UniProt P14780); experiment: Gelatin zymography of human synovial fluid pre-incubated with inhibitors; type: biochemical; details: co-incubated 1 h
T1 construct: Samples containing human synovial fluid (5 μL) and 5 or 10 μM of peptides were pre-incubated; from tissue; host or cells: human synovial fluid
Procedure: (§1) (A) Samples containing human synovial fluid (5 μL) and 5 or 10 μM of peptides were pre-incubated at 37° C. for 1 h in Tris-HCl buffer prior to electrophoresis on 10% SDS-PAGE gel containing gelatin (0.1%). […] (B) The mean density (OD/mm2)±SD (n=3), representing MMP-2 activity, obtained by scanning the zymograms using the GS-710 calibrated imaging densitometer (Bio Rad, USA).
(§2) Gelatin zymography: human synovial fluid, purified human recombinant MMP-2 and -9 or APMA-activated concentrated culture supernatant samples (10 μL) was mixed (1:1) with Laemmli sample buffer, loaded on 4% acrylamide stacking gel and electrophoresed (120 V) at 4° C. on a 10% acrylamide-resolving minigel containing 0.1% gelatin. After electrophoresis for 1 h, the gels were soaked in 2.5% Triton X-100 on a shaker for 1 h, changing the solution after 30 min, to eliminate SDS. After overnight incubation in zymogen activation buffer [50 mM Tris-HCl, pH 7.5, containing 10 mM CaCl2 and 5 mM ZnCl2] at 37° C., the gels were rinsed in distilled water, and stained for 3 hr with […], after which clear bands of digested gelatin were clearly visible. The gels were briefly rinsed in distilled water and scanned by the Bio-Rad GS-710 Calibrated Imaging Densitometer.

MMP-2 = target: T2, MMP-2 (Homo sapiens, UniProt P08253); experiment: as above; type: biochemical; details: 5 or 10 μM, pre-incubated 37° C. 1 h
T2 construct: from tissue; host or cells: human synovial fluid
T2 sequence (P08253 110-660): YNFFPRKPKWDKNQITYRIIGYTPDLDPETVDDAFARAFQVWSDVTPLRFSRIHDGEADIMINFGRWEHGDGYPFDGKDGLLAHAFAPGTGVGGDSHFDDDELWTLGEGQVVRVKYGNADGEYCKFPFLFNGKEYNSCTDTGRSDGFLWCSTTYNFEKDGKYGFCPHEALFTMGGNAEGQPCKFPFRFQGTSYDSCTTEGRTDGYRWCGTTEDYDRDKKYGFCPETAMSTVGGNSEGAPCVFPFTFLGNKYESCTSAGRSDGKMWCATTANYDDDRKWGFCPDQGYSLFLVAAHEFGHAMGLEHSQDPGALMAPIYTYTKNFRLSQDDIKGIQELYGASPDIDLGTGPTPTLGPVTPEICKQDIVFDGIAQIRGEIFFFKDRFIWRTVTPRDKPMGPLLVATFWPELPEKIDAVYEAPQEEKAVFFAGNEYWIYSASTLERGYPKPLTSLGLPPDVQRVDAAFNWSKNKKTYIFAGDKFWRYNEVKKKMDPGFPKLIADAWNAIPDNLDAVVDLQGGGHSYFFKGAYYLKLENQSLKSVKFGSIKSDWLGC
Procedure: as §1, §2

secreted MMP-2 = target: T3, secreted MMP-2 (Oryctolagus cuniculus, UniProt P50757); experiment: Secreted gelatinase activity of IL-1β-stimulated rabbit synovial fibroblasts treated with peptide (FIG. 4B); type: cell-based; details: cells treated with 1-10 μM peptide, IL-1β stimulation
T3 construct: endogenous in cells; host or cells: HIG-82 rabbit fibroblast-like synoviocytes (ATCC CRL-1832)
T3 sequence (P50757 110-662): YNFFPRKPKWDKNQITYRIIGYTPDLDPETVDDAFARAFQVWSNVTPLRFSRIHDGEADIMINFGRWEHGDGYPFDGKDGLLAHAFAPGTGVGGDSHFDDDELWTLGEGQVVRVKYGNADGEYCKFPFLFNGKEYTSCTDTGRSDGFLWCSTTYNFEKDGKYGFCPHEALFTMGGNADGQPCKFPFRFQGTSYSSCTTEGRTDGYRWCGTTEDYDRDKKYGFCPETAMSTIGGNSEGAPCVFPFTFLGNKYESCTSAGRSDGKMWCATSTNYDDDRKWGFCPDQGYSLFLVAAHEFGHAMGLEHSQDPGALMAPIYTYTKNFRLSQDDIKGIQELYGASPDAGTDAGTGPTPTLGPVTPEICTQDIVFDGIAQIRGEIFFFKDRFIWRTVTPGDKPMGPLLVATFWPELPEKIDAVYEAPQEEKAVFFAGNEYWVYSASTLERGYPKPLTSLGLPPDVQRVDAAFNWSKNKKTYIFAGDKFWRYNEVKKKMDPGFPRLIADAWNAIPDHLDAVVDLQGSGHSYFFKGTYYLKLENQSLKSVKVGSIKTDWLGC
Procedure: Gelatinase activity in the supernatants from cells induced with IL-1β (5 ng) for 48 h was analyzed by gelatin zymography. (A) Supernatants (activated with final 1 mM APMA at 30° C. for 30 min) were pre-incubated with various inhibitors. (5 μM peptides or 1-2 μM Calbiochem MMP inhibitor II) for 1 h at 25° C. prior to zymographic analyses—Lane 1, without activation (no inhibitor); Lane 2, with activation (no inhibitor); Lanes 3-8, with activation plus inhibitor: 3, P-NT-II; 4, PIP [59-67] monomer; 5, PIP [57-67] dimer; 6, PIP [59-67] dimer; 7 and 8, positive control MMP Inhibitor II (Calbiochem) at 1 and 2 μM concentrations. (B) Rabbit synovial fibroblasts were stimulated by IL-1β in the presence or absence of 1-10 μM of PIP [59-67] dimer for 48 h. Culture supernatants were concentrated by centrifugation (Centricon centrifugal filter devices, M.W. cutoff 30,000) and activated with APMA (1 mM final) before measurement of gelatinase activity by gelatin zymography. Lanes: 1 (−peptide−APMA); 2 (−peptide+APMA); 3 (+1 μM peptide+APMA); 4 (+5 μM peptide+APMA); 5 (+7.5 μM peptide+APMA); 6 (+10 μM peptide+APMA).
as §2
FLSC culture and inhibition of extracellular MMP activity: All experiments were performed on HIG-82 rabbit fibroblast-like synoviocytes (FLSCs) obtained from American Type Culture Collection (Manassas, Va.; catalogue No. CRL-1832). FLSCs were grown in Ham's F-12 medium containing 10% fetal bovine serum (FBS) and 1% penicillin/streptomycin, as recommended by the supplier. For experimental purposes, FLSCs were seeded into 12-well plates, grown to near confluence, and then serum starved (Ham's F-12 without FBS or penicillin/streptomycin) for 16 h. […] After activation with APMA (1 mM final concentration), the samples were measured for MMP-1 activity using BIOMOL AK-404 QuantiZyme Assay system, and for MMP-2 and -9 activities by gelatin zymography.

T1 sequence (P14780 94-707): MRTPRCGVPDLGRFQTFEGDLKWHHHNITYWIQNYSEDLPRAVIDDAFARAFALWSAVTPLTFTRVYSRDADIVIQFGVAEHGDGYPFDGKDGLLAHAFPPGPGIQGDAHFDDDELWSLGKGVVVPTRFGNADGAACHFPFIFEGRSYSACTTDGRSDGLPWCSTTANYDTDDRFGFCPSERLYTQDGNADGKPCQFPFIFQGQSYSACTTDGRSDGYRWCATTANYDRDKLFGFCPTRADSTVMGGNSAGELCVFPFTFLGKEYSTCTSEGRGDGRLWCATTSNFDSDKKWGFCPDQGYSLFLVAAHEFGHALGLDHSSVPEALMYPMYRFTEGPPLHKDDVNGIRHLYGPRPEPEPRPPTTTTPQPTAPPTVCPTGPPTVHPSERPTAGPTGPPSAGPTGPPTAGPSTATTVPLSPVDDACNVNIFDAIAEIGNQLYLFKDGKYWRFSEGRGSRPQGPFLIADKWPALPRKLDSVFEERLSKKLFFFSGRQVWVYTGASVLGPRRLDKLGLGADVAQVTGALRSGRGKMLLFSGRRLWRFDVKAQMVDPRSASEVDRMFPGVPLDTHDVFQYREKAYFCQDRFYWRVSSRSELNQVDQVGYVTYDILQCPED

For `CC[C@H](C)[C@H](NC(=O)[C@H](CC(=O)O)NC(=O)[C@@H](N)C(C)C)C(=O)N[C@@H](Cc1c[nH]cn1)C(=O)N[C@H](C(=O)N[C@@H](Cc1c[nH]c2ccccc12)C(=O)N[C@@H](CC(=O)O)C(=O)NCC(=O)N[C@H](C(=O)N[C@H](C(=O)N[C@@H](CC(=O)O)C(=O)N[C@H](C(=O)N[C@@H](Cc1c[nH]cn1)C(=O)N[C@H](C(=O)N[C@@H](Cc1c[nH]c2ccccc12)C(=O)N[C@@H](CC(=O)O)C(=O)NCC(=O)N[C@H](C(=O)O)C(C)C)C(C)C)[C@@H](C)CC)C(C)C)C(C)C)C(C)C` [PIP [59-67] dimer] (H-VDIHVWDGVVDIHVWDGV-OH; N-terminus and C-terminus assumed), the “MMP-9 gelatinase activity vs control” value (MMP-9) was “insignificant”, the “MMP-2 gelatinase activity (zymogram densitometry) vs control” value (MMP-2) was “did not show any significant difference from the control; also recorded: insignificant” and the “activity of secreted MMP-2” value (secreted MMP-2) was “failed to inhibit”. The “activity of secreted MMP-2” value (secreted MMP-2; listed as dimerized peptide) was “less marked”.
